According to patent publication US8722910B2, “Diyne compositions” (Evolva AG, priority 2009, dated 2014):
In brackets after ≈: the same amount, converted by molar mass. Several values for one entry are separate records, joined by “and”; a condition that tells them apart may be missing. Identical values can stand only once. Like-named read-outs stand apart in the source and are kept apart here.

Legend:
T. mentagrophytes = test: In vitro antifungal activity vs. dermatophytes (MIC/MFC); assay type: cell-based; conditions: T. mentagrophytes (n = 15)
C. guilliermondii = test: In vitro antifungal activity vs. yeasts (MIC/MFC); assay type: cell-based; conditions: Meyerozyma guilliermondii, C. guilliermondii (n = 1)
Epidermophyton floccosum = test: In vitro antifungal activity vs. dermatophytes (MIC/MFC); assay type: cell-based; conditions: Epidermophyton floccosum (n = 15)
C. parapsilosis = test: In vitro antifungal activity vs. yeasts (MIC/MFC); assay type: cell-based; conditions: Lodderomyces parapsilosis, C. parapsilosis (n = 2)
Microsporum canis = test: In vitro antifungal activity vs. dermatophytes (MIC/MFC); assay type: cell-based; conditions: Microsporum canis (n = 15)
Candida albicans [1] = test: Mouse vaginal infection, topical dosing; assay type: in vivo; conditions: mice; topically 0.01% daily for five days
Procedure: The efficacy of compound III″ in vaginal infections of small mammals has been shown. Mice were vaginally infected with Candida albicans. Compound III″ was administered topically at 0.01% daily for five days. Fungal burden decreased 86% compared to the untreated control (see FIG. 14 showing vaginal fungal burden as determined by colony forming units (CFU) from vaginal lavage fluid).

Candida albicans [2] = test: In vitro fungicidal activity vs. Candida albicans
Cytochrome P450 2D6 = Cytochrome P450 2D6 (Homo sapiens, UniProt P10635); test: Inhibition of cytochrome P450 enzymes; assay type: in vitro ADME; conditions: substrate dextromethorphan
Cytochrome P450 2D6, sequence (P10635 whole entry): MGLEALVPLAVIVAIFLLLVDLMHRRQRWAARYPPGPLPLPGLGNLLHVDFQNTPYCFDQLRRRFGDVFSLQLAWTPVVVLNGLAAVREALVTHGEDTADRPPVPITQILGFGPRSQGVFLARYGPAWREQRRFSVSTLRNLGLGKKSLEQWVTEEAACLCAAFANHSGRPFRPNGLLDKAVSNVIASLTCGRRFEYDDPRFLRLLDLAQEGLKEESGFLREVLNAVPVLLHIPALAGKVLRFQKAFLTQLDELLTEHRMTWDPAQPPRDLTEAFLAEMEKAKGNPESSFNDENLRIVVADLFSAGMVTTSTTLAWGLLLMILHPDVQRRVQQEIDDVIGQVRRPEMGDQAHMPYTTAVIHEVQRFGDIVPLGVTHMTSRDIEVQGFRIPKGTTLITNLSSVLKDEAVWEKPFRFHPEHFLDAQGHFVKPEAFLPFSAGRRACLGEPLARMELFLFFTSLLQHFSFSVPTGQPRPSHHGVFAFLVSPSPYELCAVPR
Procedure: (§1) Peak areas corresponding to the metabolite of each substrate were recorded. The percent of control activity was then calculated by comparing the peak area obtained in the presence of the diyne potassium salt and in the absence.

Cytochrome P450 1A = test: Inhibition of cytochrome P450 enzymes; assay type: in vitro ADME; conditions: substrate ethoxyresorufin; 10 μM
Procedure: as §1

Cytochrome P450 2C19 = Cytochrome P450 2C19 (Homo sapiens, UniProt P33261); test: Inhibition of cytochrome P450 enzymes; assay type: in vitro ADME; conditions: substrate omeprazole
Cytochrome P450 2C19, sequence (P33261 whole entry): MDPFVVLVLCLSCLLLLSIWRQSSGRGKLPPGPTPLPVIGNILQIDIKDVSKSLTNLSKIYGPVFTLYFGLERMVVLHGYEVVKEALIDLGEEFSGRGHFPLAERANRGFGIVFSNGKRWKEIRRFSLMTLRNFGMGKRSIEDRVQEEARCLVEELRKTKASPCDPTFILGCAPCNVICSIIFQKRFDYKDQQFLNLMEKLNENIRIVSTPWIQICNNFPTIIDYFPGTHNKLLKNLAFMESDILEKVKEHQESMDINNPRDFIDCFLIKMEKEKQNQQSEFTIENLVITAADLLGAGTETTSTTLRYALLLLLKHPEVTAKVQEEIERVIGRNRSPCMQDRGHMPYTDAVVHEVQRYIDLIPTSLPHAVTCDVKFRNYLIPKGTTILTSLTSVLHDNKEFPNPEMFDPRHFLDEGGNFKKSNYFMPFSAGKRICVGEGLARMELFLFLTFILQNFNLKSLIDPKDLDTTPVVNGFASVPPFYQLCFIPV
Procedure: as §1

CYP1A = test: Inhibition of cytochrome P450 enzymes; assay type: in vitro ADME; conditions: human, probe ethoxyresorufin; substrate ethoxyresorufin
Procedure: as §1

Cytochrome P450 2B6 = Cytochrome P450 2B6 (Homo sapiens, UniProt P20813); test: Inhibition of cytochrome P450 enzymes; assay type: in vitro ADME; conditions: substrate bupropion
Cytochrome P450 2B6, sequence (P20813 whole entry): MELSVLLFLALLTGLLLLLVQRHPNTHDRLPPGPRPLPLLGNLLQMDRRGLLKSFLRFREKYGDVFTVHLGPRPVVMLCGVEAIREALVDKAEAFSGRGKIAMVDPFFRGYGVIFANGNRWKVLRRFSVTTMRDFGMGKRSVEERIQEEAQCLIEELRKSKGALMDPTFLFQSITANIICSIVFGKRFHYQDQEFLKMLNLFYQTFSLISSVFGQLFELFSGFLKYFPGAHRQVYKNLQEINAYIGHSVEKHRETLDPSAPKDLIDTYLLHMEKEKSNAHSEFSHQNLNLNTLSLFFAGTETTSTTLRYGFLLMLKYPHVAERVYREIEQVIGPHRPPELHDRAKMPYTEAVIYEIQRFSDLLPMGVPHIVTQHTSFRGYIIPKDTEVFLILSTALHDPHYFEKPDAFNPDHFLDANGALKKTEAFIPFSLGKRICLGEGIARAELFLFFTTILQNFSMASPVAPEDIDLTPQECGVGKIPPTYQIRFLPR
Procedure: as §1

CYP3A = test: Inhibition of cytochrome P450 enzymes; assay type: in vitro ADME; conditions: human
Procedure: as §1

Cytochrome P450 2C9 = Cytochrome P450 2C9 (Homo sapiens, UniProt P11712); test: Inhibition of cytochrome P450 enzymes; assay type: in vitro ADME; conditions: substrate diclofenac
Cytochrome P450 2C9, sequence (P11712 whole entry): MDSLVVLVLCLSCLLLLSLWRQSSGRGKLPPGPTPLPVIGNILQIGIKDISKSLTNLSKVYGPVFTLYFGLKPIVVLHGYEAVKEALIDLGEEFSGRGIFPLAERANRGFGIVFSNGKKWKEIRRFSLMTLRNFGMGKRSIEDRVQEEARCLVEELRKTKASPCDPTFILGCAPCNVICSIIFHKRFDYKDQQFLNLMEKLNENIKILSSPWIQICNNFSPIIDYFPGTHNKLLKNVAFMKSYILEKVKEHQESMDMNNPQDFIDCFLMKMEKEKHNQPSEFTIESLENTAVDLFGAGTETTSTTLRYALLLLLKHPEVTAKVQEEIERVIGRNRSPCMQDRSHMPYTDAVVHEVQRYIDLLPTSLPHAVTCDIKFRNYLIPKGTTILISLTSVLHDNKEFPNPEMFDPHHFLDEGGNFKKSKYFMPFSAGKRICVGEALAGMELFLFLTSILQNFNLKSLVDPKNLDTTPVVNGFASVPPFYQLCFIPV
Procedure: as §1

S. cerevisiae = test: Doubling times of S. cerevisiae; assay type: cell-based
Procedure: S. cerevisiae was cultured in the presence of 1 and 10 μg/ml of the potassium salt, 10 μg/ml oleic acid and 1 μg/ml of the potassium salt combined with 10 μg/ml oleic acid.
When S. cerevisiae was cultured in the presence of 1 and 10 μg/ml compound IV″, the doubling times increased to 2.4 h and 4.2 h, respectively, compared to 2 h for the untreated control. The addition of 10 μg/ml oleic acid, sodium salt, to 1 μg/ml compound IV″ reversed the doubling time to 2 h as observed for the untreated control or 10 μg/ml oleic acid, sodium salt alone.

Candida parapsilosis = test: Growth inhibition alone and combined with Amphotericin B (visual); assay type: cell-based; conditions: 2 μg/ml and lower
Procedure: (§2) Potassium (Z)-14-(furan-2-yl)tetradeca-9-en-11,13-diynoate was tested against Aspergillus fumigatus and various Candida species alone to determine antifungal activity and in various combinations with Amphotericin B to determine if any synergistic or antagonistic interactions may occur.
(§3) Amphotericin B and potassium (Z)-14-(furan-2-yl)tetradeca-9-en-11,13-diynoate were added to an in vitro culture of different fungi in various concentrations and the culture was visually inspected. If there is inhibition of growth the culture will remain optically clear, whereas growth results in a hazy culture. The results are shown in FIG. 5, where 0 means optically clear (i.e. no growth), 1 means slightly hazy, 2 means prominent decrease (at least 50%) in visible growth, 3 means slight reduction in visible growth and 4 means no reduction in visible growth.

Candida albicans [3] = test: as above; assay type: cell-based; conditions: 2 μg/ml and lower
Procedure: as §2, §3

Candida glabrata = test: as above; assay type: cell-based
Procedure: as §2, §3

Aspergillus fumigatus = test: as above; assay type: cell-based
Procedure: as §2, §3

A. versicolor = test: Susceptibility of clinical Aspergillus isolates (MIC); assay type: cell-based
Procedure: (§4) The efficacy of compound IV″ was investigated on 563 clinical isolates of 33 human fungal pathogens. […] For species with n≧10, the MIC90 (MIC, minimal inhibitory concentration) is given as ng/ml. For species with n≦10, the MIC range is given as ng/ml. 24 h and 48 h reads are indicated (Table 1).
(§5) Susceptibilities were determined according to the CLSI reference method M38-A2.

A. nidulans = test: as above; assay type: cell-based; conditions: 24 h
Procedure: as §4, §5

A. fumigatus = test: as above; assay type: cell-based
Procedure: as §4, §5

A. terreus = test: as above; assay type: cell-based
Procedure: as §4, §5

A. niger = test: as above; assay type: cell-based; conditions: 24 h
Procedure: as §4, §5

A. flavus = test: as above; assay type: cell-based
Procedure: as §4, §5

## O=C(O)CCCCCCC/C=C\C#CC#Cc1ccco1 [Compound III″]
T. mentagrophytes; MIC90, 48 h
  MIC90/MIC range 48 h: <0.06 ng/mL
T. mentagrophytes; Trichophyton mentagrophytes, 96 h, 35° C., 4 days
  MIC: < 0.06 ng/mL
T. mentagrophytes; Trichophyton mentagrophytes
  MFC: 0.1 ng/mL (≈ 0.352 nM)
C. guilliermondii
  MFC: 0.5 ng/mL (≈ 1.76 nM)
C. guilliermondii; 90% inhibition endpoint
  MIC: < 0.06 ng/mL
Epidermophyton floccosum; 96 h, 35° C., 4 days
  MIC: < 0.06 ng/mL
Epidermophyton floccosum
  MFC: 15 ng/mL (≈ 52.8 nM)
Epidermophyton floccosum; MIC90, 48 h
  MIC90/MIC range 48 h: <0.06 ng/mL
C. parapsilosis
  MFC: 32000 ng/mL (≈ 113000 nM)
C. parapsilosis; 90% inhibition endpoint
  MIC: 4000 ng/mL (≈ 14100 nM)
Microsporum canis; 96 h, 35° C., 4 days
  MIC: < 0.06 ng/mL
Microsporum canis
  MFC: 0.5 ng/mL (≈ 1.76 nM)
Microsporum canis; MIC90, 48 h
  MIC90/MIC range 48 h: <0.06 ng/mL
Candida albicans [1]
  decrease of vaginal fungal burden (CFU, lavage fluid): 86%
Candida albicans [2]; Candida albicans
  Fungicidal Concentration: 0.4 ng/mL
Candida albicans [2]; Candida albicans, 24 h, read-out: MIC90 24 h
  MIC90: 0.4 ng/mL (≈ 1.41 nM)
Candida albicans [2]; Candida albicans, 48 h, read-out: MIC90 48 h
  MIC90: 0.4 ng/mL (≈ 1.41 nM)
Candida albicans [2]; growth-negative samples after 24 hr incubation, subcultured
  remaining organisms: < 5 cfu/ml

## O=C([O-])CCCCCCC/C=C\C#CC#Cc1ccco1.[K+] [Compound IV″, potassium (Z)-14-(furan-2-yl)tetradeca-9-en-11,13-diynoate]
Cytochrome P450 2D6
  IC50: > 100 µM
Cytochrome P450 2D6; 10 μM
  % control at 10 μM: 88%
Cytochrome P450 1A
  % control at 10 μM: 92%
Cytochrome P450 2C19
  IC50: 32 µM
Cytochrome P450 2C19; 10 μM
  % control at 10 μM: 84%
CYP1A
  IC50: 59 µM
Cytochrome P450 2B6
  IC50: 24 µM
Cytochrome P450 2B6; 10 μM
  % control at 10 μM: 82%
CYP3A; probe midazolam, substrate midazolam
  IC50: 45 µM
CYP3A; probe testosterone, substrate testosterone
  IC50: 57 µM
Cytochrome P450 2C9
  IC50: 18 µM
Cytochrome P450 2C9; 10 μM
  % control at 10 μM: 74%
S. cerevisiae; 1 μg/ml
  Doubling time: 2.4 h
S. cerevisiae; 1 μg/ml combined with 10 μg/ml oleic acid
  Doubling time: 2 h and 2.1 h
S. cerevisiae; 10 μg/ml
  Doubling time: 4.2 h
Candida parapsilosis
  inhibition of growth: clearly inhibits growth
Candida albicans [3]
  inhibition of growth: clearly inhibits growth
Candida glabrata
  interaction with Amphotericin B: Synergism was observed
Candida glabrata; 2 μg/ml and lower
  inhibition of growth: clearly inhibits growth
Candida glabrata; AmphothericinB/potassium salt 250/2.5 ng/ml or 125/10 ng/ml
  inhibition of growth by the combination: clearly inhibit growth
Aspergillus fumigatus
  interaction with Amphotericin B: Synergism was observed
A. versicolor; A. versicolor (n = 4), MIC range, 24 h
  MIC90/MIC range 24 h: 80 to 2560 ng/mL
A. versicolor; A. versicolor (n = 4), MIC range, 48 h
  MIC90/MIC range 48 h: 160 to 5120 ng/mL
A. versicolor; Aspergillus versicolor, 24 h
  MIC50: 1280 ng/mL
A. nidulans
  MIC50: 5120 ng/mL
A. fumigatus; A. fumigatus (n = 40), MIC90, 24 h
  MIC90/MIC range 24 h: 160 ng/mL
A. fumigatus; A. fumigatus (n = 40), MIC90, 48 h
  MIC90/MIC range 48 h: 1280 ng/mL
A. fumigatus; Aspergillus fumigatus, 24 h
  MIC50: 80 ng/mL
A. terreus; A. terreus (n = 5), MIC range
  MIC90/MIC range 24 h: 10 to 20 ng/mL
A. terreus; Aspergillus terreus, 24 h
  MIC50: 10 ng/mL
A. niger
  MIC50: 2560 ng/mL
A. flavus; A. flavus (n = 5), MIC range, 48 h
  MIC90/MIC range 48 h: >5120 ng/mL
A. flavus; Aspergillus flavus, 24 h
  MIC50: > 5120 ng/mL
